This passage reports GI50 and TGI results from PubChem BioAssay (NCI).

SMILES strings stand for the structures.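 Where inhibition never reached the appropriate level, the endpoint shown equals the highest concentration tested. Otherwise, values were interpolated linearly from a five-concentration, 48-hour dose response in 96-well plates. GI50 = concentration required for 50% inhibition of growth. TGI marks complete inhibition of growth.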

Holding throughout (experiment): NCI tumour cell line growth inhibition, 48 h
The subject of experiment [1] is SN12C renal.
Experiment [2] deals with HCT-116 colon.
Experiment [3] concerns SNB-75 CNS.
Experiment [4] deals with SK-MEL-28 melanoma.
For experiment [5], the system named is SK-OV-3 ovarian.
Experiment [6] relates to LOX IMVI melanoma.
Experiment [7] relates to TK-10 renal.
Experiment [8] has as its system A549 NSCLC.
Experiment [9] concerns UACC-62 melanoma.
For experiment [10], the system named is SK-MEL-5 melanoma.

`COc1cc(/C=C2\COc3ccc(O)c(O)c3C2=O)cc(OC)c1`: the GI50 in [1] is 1.63 µM; in experiment [2], 1.56 µM; in [3], 2.42 µM; in experiment [4], 2.97 µM; in [5], 4.57 µM; in experiment [6], 1.28 µM. Also, the GI50 is 2.26 µM in experiment [7], 2.16 µM in experiment [8], 1.42 µM in [9] and 1.72 µM in [10]. The TGI in [1] was 8.24 µM; in experiment [2], 3.61 µM; in experiment [3], 10.9 µM; in [4] it was 10.4 µM; in experiment [5], 17.3 µM; in [6], 2.67 µM. The TGI was 6.89 µM in [7], 12.1 µM in experiment [8], 3.57 µM in [9] and 3.13 µM in [10].
Turning to `COc1ccc(C(c2c(O)c3ccccc3n(C)c2=O)c2c(O)c3ccccc3n(C)c2=O)cc1`, the TGI in experiment [1], in [2], in experiment [3], in [4], in experiment [5] and in experiment [6] was > 100 µM throughout. For the same compound, the TGI was > 100 µM in experiment [7], > 100 µM in experiment [8], 98 µM in experiment [9] and 54.6 µM in [10].
Regarding `NCc1nnn(Cc2ccccc2)c1N`, the TGI in [1], in experiment [2], in experiment [3], in experiment [4], in experiment [5] and in experiment [6] was > 100 µM throughout. Besides, the TGI in [7], in experiment [8], in experiment [9] and in experiment [10] was > 100 µM each time.
`COc1ccc(/C=C/c2n[nH]c3ccc(N4CCOC4=O)cc23)cc1`: the GI50 in experiment [1] is 2.14 µM; in experiment [2] it was 0.693 µM; in [3], 2.5 µM; in experiment [4] it was 3.39 µM; in experiment [5], 2.82 µM; in [6], 2.52 µM. For the same compound, the GI50 in [7] was 3.12 µM; in experiment [8] it was 1.66 µM; in experiment [9] it was 2.6 µM; in [10] it was 2.15 µM. For the same compound, the TGI in experiment [1] was > 100 µM; in experiment [2], 13.6 µM; in experiment [3], 18 µM; in experiment [4], 12.4 µM; in experiment [5] it was 9.57 µM; in experiment [6], 27.7 µM. For the same compound, the TGI was 26.2 µM in [7], 14.2 µM in experiment [8], 6.83 µM in experiment [9] and 5.66 µM in experiment [10].
Turning to `COc1ccc(/C(C)=N/OC(=O)c2c(-c3ccccc3Cl)noc2C)cc1CN1CCOCC1`, the TGI was 51.3 µM in experiment [1]; 36.5 µM in [2]; 94 µM in experiment [3]; 54.4 µM in [4]; > 100 µM in experiment [5]; 28.1 µM in experiment [6]. Moreover, the TGI in experiment [7] was > 100 µM; in [8], 50.9 µM; in experiment [9], 30 µM; in experiment [10] it was 31.8 µM.
Regarding `COC(=O)CCC/C=C\C[C@H]1C=CC(=O)/C1=C/C[C@@H](O)C/C=C\CC(F)(F)F`, the GI50 in [1] is 2.53 µM; in [2], 1.26 µM; in [3], 12.4 µM; in experiment [4] it was 2.08 µM; in experiment [5], 5.55 µM; in experiment [6], 0.243 µM. Moreover, the GI50 in experiment [7] was 3.22 µM; in experiment [8], 2.91 µM; in experiment [9], 1.2 µM; in experiment [10] it was 1.64 µM. The TGI is 7.38 µM in [1]; 2.75 µM in experiment [2]; 29.3 µM in experiment [3]; 4.77 µM in experiment [4]; 16.5 µM in [5]; 0.668 µM in experiment [6]. The TGI stood at 10.8 µM in [7], 8.73 µM in experiment [8], 3.64 µM in experiment [9] and 3.05 µM in [10].
Turning to `N#CCCN(c1ccc(-c2nnc(NC(=O)CNNC(=O)CC(=O)Nc3ccccc3)s2)cc1)S(=O)(=O)c1ccccc1`, the TGI in [1], in experiment [2], in experiment [3], in experiment [4], in experiment [5] and in [6] was > 100 µM in each case. Besides, the TGI in [7], in [8], in experiment [9] and in [10] was > 100 µM each time.
Consider `NS(=O)(=O)c1ccc(N2N=C3c4ccccc4CC3C2c2ccc(Cl)cc2)cc1` (stereo not given), for which the GI50 is 6.75 µM in experiment [1]; 6.04 µM in [2]; 2.97 µM in experiment [3]; 10 µM in experiment [4]; 12.4 µM in experiment [5]; 18 µM in [6]. The GI50 is 8.32 µM in [7], 10.8 µM in [8], 5.97 µM in [9] and 2.3 µM in experiment [10]. Further, the TGI is 25.6 µM in experiment [1]; > 100 µM in experiment [2]; 7.94 µM in experiment [3]; 28.7 µM in experiment [4]; 49.4 µM in [5]; 36.5 µM in experiment [6]. Also, the TGI was determined as 27.3 µM in experiment [7], 34 µM in experiment [8], 22.7 µM in experiment [9] and 5.85 µM in experiment [10].
In the case of `O=[N+]([O-])c1nccn1COCCF`, the TGI in [1], in [2], in [3], in experiment [4], in experiment [5] and in experiment [6] was > 100 µM throughout. Further, the TGI in experiment [7], in experiment [8], in [9] and in [10] was > 100 µM throughout.
For the compound `Cc1ccccc1C(C#N)C(=O)C(=O)Nc1cccc(Cl)c1` (stereo not given), the TGI in experiment [1] is > 100 µM; in [2], > 100 µM; in experiment [3], > 100 µM; in [4], > 100 µM; in [5], > 100 µM; in experiment [6], 34.1 µM. In addition, the TGI in experiment [7], in experiment [8], in [9] and in experiment [10] was > 100 µM throughout.
For `CN(C)CCNC(=O)c1cccc2[nH]c(-c3ccccc3)nc12`, the TGI in experiment [1] was 43.7 µM; in experiment [2], 27.5 µM; in experiment [3] it was 75.3 µM; in [4], 32.5 µM; in [5], 56.3 µM; in [6] it was 29.7 µM. Further, the TGI in experiment [7] turned out to be 59.9 µM; in [8], 31.7 µM; in experiment [9] it was 32.6 µM; in [10], 28.4 µM.
For `CC(C)=CC(=O)Cc1nc2cc(C)c(C)cc2[nH]c1=O`, the TGI in experiment [1], in experiment [2], in [3], in experiment [4], in experiment [5] and in experiment [6] was > 100 µM in each case. Further, the TGI in experiment [7], in experiment [8], in [9] and in experiment [10] was > 100 µM each time.
